Values of other authors, collected in US6566543B2, “2-arachidonylglycerol (2-AG)-an inhibitor of tumor necrosis factor-α and neuroprotector of brain in closed head injury” (Yissum Research Development Company of The Hebrew …, priority 2000, dated 2003).

Tests used:
TNF-α = conditions: astrocytes
nitric oxide release = conditions: astrocytes
cannabinoid receptors = conditions: previously shown, Ben-Shabat et al., 1998

| SMILES | inhibition of TNF-α production (TNF-α) | nitric oxide release (nitric oxide release) | activity in numerous in vivo and in vitro assays (including binding to the cannabinoid receptors) (cannabinoid receptors) |
| --- | --- | --- | --- |
| CCCCC/C=C\C/C=C\C/C=C\C/C=C\CCCC(=O)NCCO [Anandamide, arachidonylethanolamide] | relatively modest | blocked nitric oxide release |  |
| CCCCCCCCCCCCCCCC(=O)OC(CO)CO [2-PalmG, 2-palmitoylglycerol] |  |  | inactive |
| CCCCC/C=C\C/C=C\CCCCCCCC(=O)OC(CO)CO [2-LinoG, 2-linoleoylglycerol] |  |  | inactive |
